Data: PMC9694494, “Resveratrol/Hydrazone Hybrids: Synthesis and Chemopreventive Activity against Colorectal Cancer Cells” (Pharmaceutics, 2022)
Like-named read-outs stand apart in the source and are kept apart here.

Columns and labels:
[1] = system: SW620 cells; assay: Antiproliferative activity (SRB, 2-8 days), SW620; type: cell-based; settings: Homo sapiens, read-out: Viability (%) ± SE; for viability at 3 µM: SW620, 3 µM; for viability at 6 µM: SW620, 6 µM; for viability at 12 µM: SW620, 12 µM; for viability at 24 µM: SW620, 24 µM; for viability at 48 µM: SW620, 48 µM
Protocol: The procedure for evaluating the antiproliferative activity was carried out using the same colorimetric test (SRB) described for cell viability, with minor modifications. Briefly, 2500 cells/well were seeded in 96-well tissue culture plates and incubated as in the previously described conditions for 0, 2, 4, 6, and 8 days. […] The culture medium was changed every 48 h. After each incubation time, cells were fixed, stained, and read as previously described for this technique.

[2] = system: SW620 cells; assay: Mitochondrial membrane potential (DiOC6/PI flow cytometry), SW620; type: cell-based, human; settings: SW620, treated at IC50 value
Protocol: To evaluate changes in mitochondrial membrane permeability, the fluorescent dyes DiOC6 (3,3′-dihexyloxacarbocyanine iodide, Thermo Fisher Scientific, Waltham, MA, USA) and propidium iodide (PI) were used. Cell density was adjusted to seed 2.5 × 10^5 cells/well in 6-well tissue culture plates. […] Subsequently, cells were scraped with the same culture mean and stained with both fluorescent dyes, incubating at room temperature for 30 min in darkness. For each sample, 10,000 events were analyzed through flow cytometry with excitation at 488 nm and detection of the emission with the green (530/15 nm) and the red (610/20 nm) filters. The results informed about the cells with depolarized mitochondrial membranes.

[3] = system: SW620 cells; assay: Cell cycle analysis (PI flow cytometry), SW620; type: cell-based, human; settings: SW620, 48 h treatment
Protocol: (§1) Cell staining with the fluorescent propidium iodide (PI) was used to measure cell cycle distribution. The assays were carried out following the previous methodology described by Nicoletti et al. (1991). Briefly, 2.5 × 10^5 cells/well were seeded in 6-well tissue culture plates at 37 °C and 5% CO2. After 24 h of adherence, cells were treated during 48 h with hybrids 6e and 7, together with the vehicle control. At the end of each treatment, cells were scraped, and the centrifuged pellet was resuspended in 1.8 mL of 70% ethanol at 4 °C to fix the cells overnight. Then, after centrifugation, cells were washed twice in versene buffer to completely remove the alcohol, besides, they were further resuspended in 300 µL of PBS containing 0.25 mg/mL RNAse (Type I-A, Sigma-Aldrich, Darmstadt, Germany) and 0.1 mg/mL PI. After the incubation in the dark (for 30 min at room temperature), 10,000 events were analyzed with a FACS Canto II flow cytometer and the software BD FACS Diva 6.1.3. (BD Biosciences, San Jose, CA, USA). The PI fluorescence signal was analyzed with excitation at 488 nm (using a Sapphire laser), and detection at 610 nm. The cell cycle model was fixed with FlowJo 7.6.2 (Ashland, OR, USA), applying the Dean-Jett-Fox model.

[4] = system: SW480 cells; assay: Cell death induction (Annexin-V/FITC and PI flow cytometry), SW480; type: cell-based, human; settings: SW480, 48 h exposure
Protocol: Flow cytometric analysis using a double fluorescent staining with Annexin-V/FITC and propidium iodide (Roche Diagnostics) was used to evaluate phosphatidylserine exposure and membrane damage. Colon cancer cells (SW480 and SW620) were seeded at 2.5 × 10^5 in each 6-well plate and treated for 48 h. […] At the end of each treatment, cells were scraped and centrifuged. The pellet was resuspended in versene buffer with the fluorescent dyes and incubated for 20 min in darkness. Data were analyzed with FlowJo 7.6.2 (Ashland, OR, USA). Cells with double-positive staining for Annexin-V and PI were considered late apoptotic or dead cells, while the single staining with Annexin-V/FITC (Annexin-V/FITC positive) or propidium iodide (PI positive) was considered for early apoptotic or necrotic cells, respectively. Assays were performed twice.

[5] = system: SW480 cells; assay: Cell cycle analysis (PI flow cytometry), SW480; type: cell-based, human; settings: SW480, 48 h treatment
Protocol: as §1

[6] = SW-620, 48 h, 2 days after plating
[7] = SW-620, 96 h, 4 days after plating
[8] = SW-620, 144 h, 6 days after plating
[9] = SW-620, 192 h, 8 days after plating

For `O=C(N/N=C/c1c(O)cc(O)cc1/C=C/c1ccc(O)cc1)c1ccncc1` [compound 7, N′-((E)-2,4-dihydroxy-6-((E)-4-hydroxystyryl)benzylidene)isonicotinohydrazide], the viability at 3 µM [1, 6] was 89.3 ± 1.65%, the viability at 6 µM [1, 6] was 88 ± 2.48% and the viability at 12 µM [1, 6] was 67.82 ± 0.4%. For the same compound, the viability at 24 µM [1, 6] was 45.21 ± 0.38%, the viability at 48 µM [1, 6] was 41.5 ± 3.3% and the viability at 3 µM [1, 7] was 87.29 ± 0.75%. The viability at 6 µM [1, 7] was 72.4 ± 0.9%, the viability at 12 µM [1, 7] was 33 ± 1.8% and the viability at 24 µM [1, 7] was 27.8 ± 2.96%. For the same compound, the viability at 48 µM [1, 7] was 6.31 ± 0.74%, the viability at 3 µM [1, 8] was 59.2 ± 2.77% and the viability at 6 µM [1, 8] was 43.4 ± 0.48%. It also gave a viability at 12 µM [1, 8] of 17.8 ± 0.3%, a viability at 24 µM [1, 8] of 8.13 ± 1.48% and a viability at 48 µM [1, 8] of 0.26 ± 0.07%. It also gave a viability at 3 µM [1, 9] of 46.55 ± 0.03%, a viability at 6 µM [1, 9] of 38.53 ± 0.28% and a viability at 12 µM [1, 9] of 5.53 ± 0.11%. For the same compound, the viability at 24 µM [1, 9] was 3.93 ± 0.59%, the viability at 48 µM [1, 9] was 0% and the “Q1: PI-positive cells with membrane damage” value [2] was 2.19%. For the same compound, the “Q2: PI-positive cells with membrane damage” value [2] was 1.54%, the “Q3: DiOC6 high, live cells with high membrane polarization” value [2] was 89.3% and the “Q4: DiOC6 low, cells in latency that lose membrane polarization” value [2] was 6.99%. For the same compound, the “Cell cycle distribution Sub G0/G1” value [3] was 20.60% and the “plasma membrane integrity (PI positive staining)” value [4] was “induced plasma membrane disintegration”.

With `COc1ccc(C(=O)N/N=C/c2c(O)cc(O)cc2/C=C/c2ccc(O)cc2)c(OC)c1` [6e, N′-((E)-2,4-dihydroxy-6-((E)-4-hydroxystyryl)benzylidene)-2,4-dimethoxybenzohydrazide] the “Cell cycle distribution G0/G1” value [5] was 58.95% and the “Cell cycle distribution G2/M” value [5] was 21.31%.
